Reference: article PMC3390344, “Antibacterial Activity and Mechanism of a Scorpion Venom Peptide Derivative In Vitro and In Vivo” (PLoS ONE, 2012)
Ends that are not written are not given here.

Test system: S. aureus AB94004
Experiment: Bactericidal assay (time-killing)
Assay type: cell-based
Settings: samples at 0, 5, 15, 30, 60 min, colony counts, average of three dishes
Procedure: Figure 5 Bactericidal assays of the Kn2-7 and BmKn2 peptides against S. aureus and E. coli AB94012. Set point indicates untreated bacteria, and 0 minutes was defined as the time of the first sample collection, which was immediately after mixing bacteria and Kn2-7 or BmKn2. The other samples were collected at 5 min, 15 min, 30 min or 60 min. All of the counts were the average of three dishes, and the experiment was repeated at least three times. (A) Time-killing curve of Kn2-7 against S. aureus AB94004. (B) Time-killing curve of BmKn2 against S. aureus AB94004. (C) Time-killing curve of Kn2-7 against E. coli AB94012.
Bactericidal curves for Kn2-7 and BmKn2 were determined against S. aureus AB94004 and E. coli AB94012. A 400 µl aliquot of the peptide solution was added to 1,600 µl of a bacterial suspension. At each time point, 200 µl of the treated bacterial suspension was transferred to a sterilized 1.5-ml tube. After centrifugation at 1,000×g for 5 min, the supernatant was removed, and the pellet was resuspended in 200 µl of LB medium. The bacterial suspensions were placed on agar plates and incubated at 37°C until viable colonies could be counted.

FIKRIARLLRKIF [Kn2-7]
Bactericidal effect (time-killing curve): bactericidal effects
